Measurements reported in US11976083B2, “Inhibitors of peptidylarginine deiminases” (Gilead Sciences, Inc., priority 2020, dated 2024).

Each compound was assayed against T1, human PAD4 (Homo sapiens, UniProt Q9UM07) (assay: In vitro PAD4 BAEE biochemical assay). Conditions: BAEE substrate 3 mM, 5 nM PAD4, 2 mM calcium chloride; geometric mean of multiple experiments.
T1 construct: human PAD4 (NM_012387), A2-P663, was PCR amplified; His-SUMO (N, cleaved yes); made in house; host or cells: E. coli BL21(DE3)
T1 sequence (Q9UM07 2-663): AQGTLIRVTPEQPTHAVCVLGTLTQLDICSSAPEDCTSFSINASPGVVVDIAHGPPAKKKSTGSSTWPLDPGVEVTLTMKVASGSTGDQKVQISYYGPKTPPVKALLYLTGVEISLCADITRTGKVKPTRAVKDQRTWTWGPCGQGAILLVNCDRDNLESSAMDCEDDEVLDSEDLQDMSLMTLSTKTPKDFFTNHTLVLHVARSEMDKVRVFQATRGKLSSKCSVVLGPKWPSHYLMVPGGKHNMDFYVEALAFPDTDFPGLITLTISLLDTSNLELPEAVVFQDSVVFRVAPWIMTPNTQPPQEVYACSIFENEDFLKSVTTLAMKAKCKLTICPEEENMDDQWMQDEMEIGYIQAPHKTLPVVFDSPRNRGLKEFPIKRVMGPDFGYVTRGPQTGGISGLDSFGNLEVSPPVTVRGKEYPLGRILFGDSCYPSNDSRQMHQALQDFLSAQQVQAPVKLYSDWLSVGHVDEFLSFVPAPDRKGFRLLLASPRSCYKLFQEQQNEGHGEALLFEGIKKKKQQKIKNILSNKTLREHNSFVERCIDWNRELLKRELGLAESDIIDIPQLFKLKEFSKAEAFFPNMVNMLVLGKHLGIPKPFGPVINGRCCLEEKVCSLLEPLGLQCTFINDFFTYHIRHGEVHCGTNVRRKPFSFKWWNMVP
Procedure, shortened: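 Recombinant PAD4 (5 nM final) with 2 mM CaCl2 was preincubated with compound for 30 min at 25 °C in MOPS pH 7.6 buffer with DTT, then reacted with 3 mM BAEE for 2 h at 25 °C. Released ammonia was detected fluorimetrically with o-phthalaldehyde/DTT; IC50 from four-parameter fit, geometric mean of experiments.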

IC50 [µM] | Compound
8.11 | COc1cc(C(=O)N[C@H]2CNCC[C@H]2OC)cc2nc(-c3cc4ccc5nc4n3CCCCCCC(C)(C)C(=O)N[C@@H]5C)n(C)c12 [Example 82, 7-methoxy-~{N}-[(3~{S},4~{R})-4-methoxy-3-piperidyl]-1-methyl-2-[(11~{R})-8,8,11-trimethyl-9-oxo-1,10,19-triazatricyclo[10.5.2.0^{15,18}]nonadeca-12(19),13,15(18),16-tetraen-17-yl]benzimidazole-5-carboxamide]
0.079 | COc1cc(C(=O)N2CC[C@@H](OC)[C@@H](N)C2)cc2nc(-c3cc4ccc5nc4n3CCCc3cccc(c3)CC(=O)N[C@@H]5C)n(C)c12 [Example 866, (13˜{R})-19-[5-[(3˜{S},4˜{R})-3-amino-4-methoxy-piperidine-1-carbonyl]-7-methoxy-1-methyl-benzimidazol-2-yl]-13-methyl-1,12,21-triazatetracyclo[12.5.2.1^{5,9}.0^{17,20}]docosa-5,7,9(22),14(21),15,17(20),18-heptaen-11-one]
0.097 | C[C@H]1NC(=O)[C@@H]2CC2CCCC(F)(F)Cn2c(-c3nc4cc(C(=O)N5C[C@H]6CC[C@@H]5[C@@H]6N)c(F)c(F)c4n3C)cc3ccc1nc32 (stereo partly drawn) [Example 566, (2~{R},5~{R},7~{R})-14-[5-[(1~{R},4~{R},7~{R})-7-amino-2-azabicyclo [2.2.1]heptane-2-carbonyl]-6,7-difluoro-1-methyl-benzimidazol-2-yl]-11,11-difluoro-2-methyl-3,13,19-triazatetracyclo[11.5.2.0^ {5,7).0^{16,20}]icosa-1(19),14,16(20),17-tetraen-4-one]
0.029 | C[C@H]1NC(=O)[C@](F)(c2ccccn2)CCCCCCn2c(-c3nc4cc(C(=O)N5C[C@H](N)[C@@H]6CC[C@H]5C6)cc(F)c4n3C3CC3)cc3ccc1nc32 [Example 886, (8~{R},11~{R})-17-[5-[(1~{S),4~{R},5~{R))-4-amino-2-azabicyclo[3.2.1]octane-2-carbonyl]-1-cyclopropyl-7-fluoro-benzimidazol-2-yl]-8-fluoro-11-methyl-8-(2-pyridyl)-1,10,19-triazatricyclo [10.5.2.0^{15,18}]nonadeca-12(19),13,15(18), 16-tetraen-9-one]
2.04 | C[C@H]1NC(=O)[C@H]2C[C@@H]2CC[C@@H]2C[C@@H]2Cn2c(-c3nc4cc(C(=O)N[C@H]5CNCC[C@@H]5F)c(F)cc4n3C)cc3ccc1nc32 [Example 379, 6-fluoro-~{N}-[(3~{S),4~{S})-4-fluoro-3-piperidyl]-1-methyl-2-[(3~{S},5~{R},8~{S},10~{S},13~{R})-13-methyl-11-oxo-1,12,21-triazapentacyclo[12.5.2.0^{3,5}.0^{8,10}.0^ {17,20}]henicosa-14(21),15,17(20),18-tetraen-19-yl]benzimidazole-5-carboxamide]
0.093 | COc1cc(C(=O)N2CC[C@@H](OC)[C@@H](N)C2)cc2nc(-c3cc4ccc5nc4n3CC(F)(F)CCCC[C@@](C)(C(F)(F)F)C(=O)N[C@@H]5C)n(C)c12 [Example 727, (8~{R},11~{R})-17-[5-[(3~{S), 4~{R})-3-amino-4-methoxy-piperidine-1-carbonyl]-7-methoxy-1-methyl-benzimidazol-2-yl]-3,3-difluoro-8,11-dimethyl-8-(trifluoromethyl)-1,10,19-triazatricyclo[10.5.2.0^ {15,18}]nonadeca-12(19),13,15(18),16-tetraen-9-one]
0.034 | COc1cc(C(=O)N2[C@H]3CC[C@@H]2[C@H](N)C3)cc2nc(-c3cc4ccc5nc4n3C[C@H]3C[C@H]3COCCC(=O)N[C@@H]5C)n(C)c12 [Example 336, (3~{S),5~{R},12~{R})-18-[5-[(1~{R},2~{R},4~{S})-2-amino-7-azabicyclo[2.2.1]heptane-7-carbonyl]-7-methoxy-1-methyl-benzimidazol-2-yl]-12-methyl-7-oxa-1,11,20-triazatetracyclo[11.5.2.0^{3,5}.0^{16,19}] icosa-13(20),14,16(19),17-tetraen-10-one]
0.08 | COc1cc(C(=O)N2CC[C@@H](OC)[C@@H](N)C2)cc2nc(-c3cc4ccc5nc4n3CCCCC[C@@H]3C[C@H]3C(=O)N[C@@H]5C)n(C)c12 [Example 174, (2~{R},5~{R},7~{R})-14-[5-[(3~{S),4~{R})-3-amino-4-methoxy-piperidine-1-carbonyl]-7-methoxy-1-methyl-benzimidazol-2-yl]-2-methyl-3,13,19-triazatetracyclo[11.5.2.0^{5,7}.0^{16,20}] icosa-1(19),14,16(20),17-tetraen-4-one]
0.013 | COc1cc(C(=O)N2[C@H]3CC[C@@H]2[C@H](N)C3)cc2nc(-c3cc4ccc5cc4n3CCCCCCCC(=O)N3CCC[C@H]53)n(C)c12 [Example 129, (2~{R})-16-[5-[(1~{R},2~{R},4~{S})-2-amino-7-azabicyclo[2.2.1]heptane-7-carbonyl]-7-methoxy-1-methyl-benzimidazol-2-yl]-6,15-diazatetracyclo[13.5.2.0^{2,6}.0^{18,22}] docosa-1(21),16,18(22),19-tetraen-7-one]
0.023 | COc1cc(C(=O)N2[C@H]3CC[C@@H]2[C@H](N)C3)cc2nc(-c3cc4ccc5nc4n3CC(F)(F)CCC[C@@H]3C[C@H]3C(=O)N[C@@H]5C)n(C)c12 [Example 642, (2~{R},5~{R},7~{R})-14-[5-[(1~{R},2~{R},4~ {S})-2-amino-7-azabicyclo[2.2.1]heptane-7-carbonyl]-7-methoxy-1-methyl-benzimidazol-2-yl]-11,11-difluoro-2-methyl-3,13,19-triazatetracyclo [11.5.2.0^{5,7}.0^{16,20}] icosa-1(19),14,16(20), 17-tetraen-4-one]
0.017 | COc1cc(C(=O)N2C[C@H](N)[C@@H]3CC[C@H]2C3)cc2nc(-c3cc4ccc5nc4n3CCCCCc3nc(C(F)F)ccc3C(=O)N[C@@H]5C)c(C)n12 [Example 777, (2~{R})-17-[7-[(1~{S},4~{R},5~ {R})-4-amino-2-azabicyclo [3.2.1]octane-2-carbonyl]-5-methoxy-3-methyl-imidazo[1,2-a]pyridin-2-yl]-8-(difluoromethyl)-2-methyl-3,9,16,22-tetrazatetracyclo [14.5.2.0^{5,10).0^{19,23}] tricosa-1(22),5(10),6,8,17, 19(23),20-heptaen-4-one]
0.033 | C[C@H]1NC(=O)c2nccnc2CCCC(F)(F)Cn2c(-c3nc4cc(C(=O)N5C[C@H](N)[C@@H]6CC[C@H]5C6)cc(F)c4n3C3CC3)cc3ccc1nc32 [Example 483, (2~{R})-17-[5-[(1~{S},4~{R},5~{R})-4-amino-2-azabicyclo[3.2.1]octane-2-carbonyl]-1-cyclopropyl-7-fluoro-benzimidazol-2-yl]-14,14-difluoro-2-methyl-3,6,9,16,22-pentazatetracyclo[14.5.2.0^{5,10}.0^{19, 23}]tricosa-1(22),5(10),6,8,17,19(23),20-heptaen-4-one]
0.078 | COc1cc(C(=O)N2CC[C@@H](OC)[C@@H](N)C2)cc2nc(-c3cc4ccc5nc4n3CCCCC[C@H]3C[C@H]3C(=O)N[C@@H]5C)n(C)c12 [Example 525, (2~{R},5~{R},7~ {S})-14-[5-[(3~{S},4~{R})-3-amino-4-methoxy-piperidine-1-carbonyl]-7-methoxy-1-methyl-benzimidazol-2-yl]-2-methyl-3,13,19-triazatetracyclo [11.5.2.0^{5,7}.0^{16,20}] icosa-1(19),14,16(20), 17-tetraen-4-one]
0.075 | COc1cc(C(=O)N2CC[C@@H](OC)[C@@H](N)C2)cc2nc(-c3cc4ccc5nc4n3CCCCCc3nccc(Cl)c3C(=O)N[C@@H]5C)n(C)c12 [Example 831, (2~{R})-17-[5-[(3~{S}, 4~{R})-3-amino-4-methoxy-piperidine-1-carbonyl]-7-methoxy-1-methyl-benzimidazol-2-yl]-6-chloro-2-methyl-3,9,16,22-tetrazatetracyclo [14.5.2.0^{5,10}.0^{19,23}] tricosa-1(22),5(10),6,8, 17,19(23),20-heptaen-4-one]
0.019 | COc1cc(C(=O)N2C[C@H](N)[C@@H]3CC[C@H]2C3)cc2nc(-c3cc4ccc5nc4n3CCCCCc3nc(Cl)ccc3C(=O)N[C@@H]5C)n(C)c12 [Example 713, (2~{R})-17-[5-[(1~{S}, 4~{R},5~{R})-4-amino-2-azabicyclo[3.2.1]octane-2-carbonyl]-7-methoxy-1-methyl-benzimidazol-2-yl]-8-chloro-2-methyl-3,9,16,22-tetrazatetracyclo [14.5.2.0^{5,10).0^{19,23}] tricosa-1(22),5(10),6,8,17,19(23), 20-heptaen-4-one]
0.025 | C[C@H]1NC(=O)[C@@H]2C[C@H]2CCCCCn2c(-c3nc4cc(C(=O)N[C@H]5CNCC[C@@H]5F)c(F)cc4n3CCC#N)cc3ccc1nc32 [Example 426, 1-(2-cyanoethyl)-6-fluoro-~{N}-[(3~{S},4~{S})-4-fluoro-3-piperidyl]-2-[(2~{R},5~{R},7~{R})-2-methyl-4-oxo-3,13,19-triazatetracyclo[11.5.2.0^{5,7}.0^{16,20}]icosa-1(19),14,16(20),17-tetraen-14-yl]benzimidazole-5-carboxamide]
0.059 | COc1cc(C(=O)N2[C@H]3CC[C@@H]2[C@H](N)C3)cc2nc(-c3cc4ccc5nc4n3CCCCCCCC(=O)NC5)n(C)c12 [Example 255, 17-[5-[(1~{R},2~{R},4~{S})-2-amino-7-azabicyclo[2.2.1]heptane-7-carbonyl]-7-methoxy-1-methyl-benzimidazol-2-yl]-1,10,19-triazatricyclo[10.5.2.0^{15,18}]nonadeca-12(19),13,15(18),16-tetraen-9-one]
0.036 | COc1cc(C(=O)N2CCC[C@@H](N)C2)cc2nc(-c3cc4ccc5nc4n3C/C=C(/F)COCCC(=O)N[C@@H]5C)n(C)c12 [Example 620, (3~{E},11~{R})-17-[5-[(3~{R})-3-aminopiperidine-1-carbonyl]-7-methoxy-1-methyl-benzimidazol-2-yl]-4-fluoro-11-methyl-6-oxa-1,10,19-triazatricyclo[10.5.2.0^ {15,18}]nonadeca-3,12(19),13,15(18), 16-pentaen-9-one]
